SMILES strings stand for the structures. Where only a bound is given, the exact number is not on record here.

Holding throughout (assay): KAM-matrix competition in K562 lysate
Holding throughout (format): binding

Test [1] addresses T1, TEC (Homo sapiens, UniProt P42680).
T1 construct: endogenous in cells; host or cells: K562 cell lysate
T1 sequence (P42680 1-631): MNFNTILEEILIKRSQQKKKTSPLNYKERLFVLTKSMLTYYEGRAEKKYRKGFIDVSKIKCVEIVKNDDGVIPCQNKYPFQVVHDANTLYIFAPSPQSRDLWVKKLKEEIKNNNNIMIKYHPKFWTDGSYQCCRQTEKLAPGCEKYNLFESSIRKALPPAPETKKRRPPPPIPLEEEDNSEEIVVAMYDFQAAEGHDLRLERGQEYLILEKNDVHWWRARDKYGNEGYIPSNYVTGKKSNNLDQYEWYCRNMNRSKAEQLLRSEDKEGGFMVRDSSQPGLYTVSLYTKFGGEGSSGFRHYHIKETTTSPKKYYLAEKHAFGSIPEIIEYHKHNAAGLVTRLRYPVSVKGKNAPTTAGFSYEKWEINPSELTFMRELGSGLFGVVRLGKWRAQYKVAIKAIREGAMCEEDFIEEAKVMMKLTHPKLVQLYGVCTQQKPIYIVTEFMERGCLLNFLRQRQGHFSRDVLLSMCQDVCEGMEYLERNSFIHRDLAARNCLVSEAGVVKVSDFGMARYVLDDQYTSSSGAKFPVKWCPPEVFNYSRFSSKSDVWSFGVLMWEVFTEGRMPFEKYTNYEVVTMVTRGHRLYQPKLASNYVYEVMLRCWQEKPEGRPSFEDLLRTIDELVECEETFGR
As to the method: (§1) Supplement 12953_2017_125_MOESM1_ESM.zip/MS_Supp Info.xlsx, sheet "KAM" | column: 10 uM KAM; 1 uM KAM; 0.1 uM KAM; 0.01 uM KAM; 0.001 uM KAM; RB50

Test [2] deals with T2, GAK (Homo sapiens, UniProt O14976).
T2 construct: endogenous in cells; host or cells: K562 cell lysate
T2 sequence (O14976 1-1311): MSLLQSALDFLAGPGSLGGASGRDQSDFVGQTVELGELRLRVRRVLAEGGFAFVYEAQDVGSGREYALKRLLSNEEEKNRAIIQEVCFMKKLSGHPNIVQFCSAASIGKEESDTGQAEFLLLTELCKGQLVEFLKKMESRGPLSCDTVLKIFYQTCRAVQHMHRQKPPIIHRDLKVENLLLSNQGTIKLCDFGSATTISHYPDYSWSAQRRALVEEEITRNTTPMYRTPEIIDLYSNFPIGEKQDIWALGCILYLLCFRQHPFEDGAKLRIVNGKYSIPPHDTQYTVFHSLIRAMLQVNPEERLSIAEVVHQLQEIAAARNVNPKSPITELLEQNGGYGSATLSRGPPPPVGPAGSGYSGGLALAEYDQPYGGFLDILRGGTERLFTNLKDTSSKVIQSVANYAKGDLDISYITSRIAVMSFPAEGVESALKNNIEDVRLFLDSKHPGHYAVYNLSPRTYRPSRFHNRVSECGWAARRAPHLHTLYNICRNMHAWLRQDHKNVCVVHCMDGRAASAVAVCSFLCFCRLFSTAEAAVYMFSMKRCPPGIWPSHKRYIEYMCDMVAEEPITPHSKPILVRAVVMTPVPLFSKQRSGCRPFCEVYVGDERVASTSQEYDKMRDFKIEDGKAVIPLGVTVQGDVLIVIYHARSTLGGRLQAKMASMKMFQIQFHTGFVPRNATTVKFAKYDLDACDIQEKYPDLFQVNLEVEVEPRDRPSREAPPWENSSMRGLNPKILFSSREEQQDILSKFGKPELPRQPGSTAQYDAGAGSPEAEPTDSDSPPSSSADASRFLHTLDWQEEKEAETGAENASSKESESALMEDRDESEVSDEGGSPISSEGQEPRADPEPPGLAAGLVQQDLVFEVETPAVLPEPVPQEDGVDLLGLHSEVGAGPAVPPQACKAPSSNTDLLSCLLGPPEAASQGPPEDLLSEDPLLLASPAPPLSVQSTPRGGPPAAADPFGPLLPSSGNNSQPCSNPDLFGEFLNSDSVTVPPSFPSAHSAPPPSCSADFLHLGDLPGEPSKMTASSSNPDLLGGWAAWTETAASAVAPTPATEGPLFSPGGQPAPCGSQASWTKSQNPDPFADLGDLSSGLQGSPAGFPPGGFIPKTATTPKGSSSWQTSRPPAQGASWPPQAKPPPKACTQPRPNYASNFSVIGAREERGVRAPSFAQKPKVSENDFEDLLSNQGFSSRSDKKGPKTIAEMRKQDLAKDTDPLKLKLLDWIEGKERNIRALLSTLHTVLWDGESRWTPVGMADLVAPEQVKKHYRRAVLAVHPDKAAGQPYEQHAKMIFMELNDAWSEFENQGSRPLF
As to the method: as §1

The target of test [3] is T3, PRKCQ (Homo sapiens, UniProt Q04759).
T3 construct: endogenous in cells; host or cells: K562
As to the method:
as §1

In test [4] the target is T4, MAP3K4 (Homo sapiens, UniProt Q9Y6R4).
T4 construct: endogenous in cells; host or cells: K562
As to the method:
as §1

[5] abbreviates: read-out: RB50 (the source's name).
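For 0.001 uM KAM in this document: median log10 fold change of treatment over DMSO control.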
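For 0.01 uM KAM in this document: median log10 fold change of treatment over DMSO control.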
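For 0.1 uM KAM in this document: median log10 fold change of treatment over DMSO control.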
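For 1 uM KAM in this document: median log10 fold change of treatment over DMSO control.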
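For 10 uM KAM in this document: median log10 fold change of treatment over DMSO control.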

T3 sequence (Q04759 whole entry): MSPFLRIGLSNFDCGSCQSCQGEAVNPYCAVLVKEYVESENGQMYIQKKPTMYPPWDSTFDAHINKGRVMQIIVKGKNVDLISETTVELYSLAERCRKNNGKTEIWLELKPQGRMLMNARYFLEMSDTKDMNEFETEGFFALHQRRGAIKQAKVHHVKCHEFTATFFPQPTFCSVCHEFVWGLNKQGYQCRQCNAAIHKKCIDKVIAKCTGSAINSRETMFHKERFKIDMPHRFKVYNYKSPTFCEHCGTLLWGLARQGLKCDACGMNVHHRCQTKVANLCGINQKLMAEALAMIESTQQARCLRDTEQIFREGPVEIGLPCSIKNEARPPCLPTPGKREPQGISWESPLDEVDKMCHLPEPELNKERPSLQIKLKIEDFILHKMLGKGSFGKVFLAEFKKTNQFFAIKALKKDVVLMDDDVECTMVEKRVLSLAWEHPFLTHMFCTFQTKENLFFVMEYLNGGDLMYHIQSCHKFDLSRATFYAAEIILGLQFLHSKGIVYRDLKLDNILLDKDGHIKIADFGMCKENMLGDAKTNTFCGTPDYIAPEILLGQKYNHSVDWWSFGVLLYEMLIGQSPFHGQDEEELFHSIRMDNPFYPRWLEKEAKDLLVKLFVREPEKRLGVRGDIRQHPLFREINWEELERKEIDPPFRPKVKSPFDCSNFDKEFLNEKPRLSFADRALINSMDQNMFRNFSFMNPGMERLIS
T4 sequence (Q9Y6R4 whole entry): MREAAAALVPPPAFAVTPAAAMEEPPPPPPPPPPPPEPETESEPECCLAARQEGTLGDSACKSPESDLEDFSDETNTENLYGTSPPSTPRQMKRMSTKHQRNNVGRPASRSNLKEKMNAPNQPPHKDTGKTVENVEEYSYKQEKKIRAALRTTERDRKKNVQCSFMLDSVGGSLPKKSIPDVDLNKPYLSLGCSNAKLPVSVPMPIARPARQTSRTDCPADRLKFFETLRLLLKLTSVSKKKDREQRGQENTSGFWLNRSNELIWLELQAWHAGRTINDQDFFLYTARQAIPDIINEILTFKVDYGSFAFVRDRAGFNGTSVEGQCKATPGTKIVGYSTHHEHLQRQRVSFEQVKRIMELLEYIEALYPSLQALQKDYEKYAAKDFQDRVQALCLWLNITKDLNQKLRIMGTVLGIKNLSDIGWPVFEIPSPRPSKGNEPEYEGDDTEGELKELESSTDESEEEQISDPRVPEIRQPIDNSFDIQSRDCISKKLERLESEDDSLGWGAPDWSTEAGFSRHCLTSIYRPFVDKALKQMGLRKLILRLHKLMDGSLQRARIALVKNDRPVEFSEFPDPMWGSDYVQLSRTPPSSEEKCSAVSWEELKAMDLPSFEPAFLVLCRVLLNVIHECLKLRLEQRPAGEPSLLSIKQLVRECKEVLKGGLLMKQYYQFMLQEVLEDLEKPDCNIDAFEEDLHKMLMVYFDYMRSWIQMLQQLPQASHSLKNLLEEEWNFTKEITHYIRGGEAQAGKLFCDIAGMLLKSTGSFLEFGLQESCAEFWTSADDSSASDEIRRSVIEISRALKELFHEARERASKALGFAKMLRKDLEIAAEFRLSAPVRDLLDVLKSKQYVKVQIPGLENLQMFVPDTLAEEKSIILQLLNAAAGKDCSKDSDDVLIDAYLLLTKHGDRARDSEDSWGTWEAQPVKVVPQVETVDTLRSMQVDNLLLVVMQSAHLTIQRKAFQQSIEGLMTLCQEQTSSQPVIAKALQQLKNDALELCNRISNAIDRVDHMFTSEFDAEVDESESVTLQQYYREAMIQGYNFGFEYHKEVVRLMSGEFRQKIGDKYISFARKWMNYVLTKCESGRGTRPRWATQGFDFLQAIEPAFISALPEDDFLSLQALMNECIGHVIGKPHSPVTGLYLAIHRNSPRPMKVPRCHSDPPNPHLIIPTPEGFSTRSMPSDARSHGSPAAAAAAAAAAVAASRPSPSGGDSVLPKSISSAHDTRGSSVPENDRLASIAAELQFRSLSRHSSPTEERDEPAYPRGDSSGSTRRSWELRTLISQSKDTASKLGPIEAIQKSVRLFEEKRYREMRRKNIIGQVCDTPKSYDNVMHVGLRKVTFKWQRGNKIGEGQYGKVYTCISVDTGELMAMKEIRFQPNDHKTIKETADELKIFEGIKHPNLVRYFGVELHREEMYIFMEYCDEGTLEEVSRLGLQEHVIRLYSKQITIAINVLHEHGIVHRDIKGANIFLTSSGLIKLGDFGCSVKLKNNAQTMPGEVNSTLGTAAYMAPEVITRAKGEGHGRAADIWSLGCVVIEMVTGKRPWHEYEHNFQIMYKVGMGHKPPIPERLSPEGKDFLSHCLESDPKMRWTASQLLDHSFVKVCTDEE

With `N#CCc1ccc(Nc2nc(NCCCN)cc(Nc3cc(C4CC4)[nH]n3)n2)cc1` [KAM], the “median Log10 fold change” value in test [1] (0.001 uM KAM) is -0.06308; in test [1] (0.01 uM KAM) it was -0.04798; in test [1] (0.1 uM KAM), -0.155; in test [1] (1 uM KAM), -0.2973; in test [1] (10 uM KAM), -0.4239; in test [2] (0.001 uM KAM), -0.03137. Also, the “median Log10 fold change” value in test [2] (0.01 uM KAM) is reported as -0.03807; in test [2] (0.1 uM KAM), -0.2019; in test [2] (1 uM KAM), -0.4109; in test [2] (10 uM KAM), -0.5049; in test [3] (0.001 uM KAM), -0.05924; in test [3] (0.01 uM KAM), -0.02167. Also, the figures for the “median Log10 fold change” value in test [3] (0.1 uM KAM), in test [3] (1 uM KAM) and in test [3] (10 uM KAM) were -0.1204, -0.1965 and -0.3734, respectively. Also, the IC50 in test [1] (setting [5]) is 1160 nM; in test [2] (setting [5]), 424 nM; in test [3] (setting [5]), 3600 nM; in test [4] (KAM 0.001-10 uM, read-out: RB50 (the source's name)) it was greater than 10000 nM. Besides, in test [4] (relative to 0 uM KAM = 0), the “0.001 uM KAM” value is -0.03643. In addition, the “0.01 uM KAM” value in test [4] (relative to 0 uM KAM = 0) was -0.006572. Moreover, the “0.1 uM KAM” value in test [4] (relative to 0 uM KAM = 0) is on record as -0.06704. For the same compound, the “1 uM KAM” value in test [4] (relative to 0 uM KAM = 0) was -0.09539. The “10 uM KAM” value in test [4] (relative to 0 uM KAM = 0) is reported as -0.1299.
